Legend:
Mus musculus [1] = assay: ED50 value as cholinergic agonist by measuring salivation in mice (in vivo); type: functional
[2] = target: Muscarinic acetylcholine receptor; assay: Binding affinity to muscarinic acetylcholine receptor was determined in presence of [3H]QNB radioligand (in vitro); type: protein assay
[3] = target: Muscarinic acetylcholine receptor (Rattus norvegicus) (UniProt P08482+P08483+P08485+P08911+P10980); assay: Ratio of Ki value for QNB to that of Ki value for Oxo-M.; type: protein assay
Mus musculus [4] = assay: ED50 value determined as oxotremorine antagonism by measuring lacrimation in mice (in vivo); type: functional
[5] = target: Muscarinic acetylcholine receptor; assay: Binding affinity to muscarinic acetylcholine receptor was determined in presence of [3H]OXO-M radioligand (in vitro); type: protein assay
Mus musculus [6] = assay: ED50 value determined as oxotremorine antagonism by measuring salivation in mice (in vivo); type: functional
Mus musculus [7] = assay: ED50 value as cholinergic agonist by measuring tremors in mice (in vivo); type: functional
Mus musculus [8] = assay: ED50 value determined as oxotremorine antagonism by measuring tremors in mice (in vivo); type: functional
Mus musculus [9] = assay: ED50 value as cholinergic agonism by measuring lacrimation in mice (in vivo); type: functional

| Compound | ED50 (Mus musculus [1]) | Ki [2] | Ki ratio [3] | ED50 (Mus musculus [4]) | Ki [5] | ED50 (Mus musculus [6]) | ED50 (Mus musculus [7]) | ED50 (Mus musculus [8]) | ED50 (Mus musculus [9]) |
| --- | --- | --- | --- | --- | --- | --- | --- | --- | --- |
| Cc1cncn1CC#CCN1CCOC1=O | > 100 mg/kg | 151 nM | 8.4 | 37 mg/kg | 18 nM | 80 mg/kg | 30 mg/kg | > 100 mg/kg | > 100 mg/kg |
| CC(C#CCN1CCCC1)N1CCCC1=O (centres undefined) | > 30 mg/kg | 14 nM | 13 | 0.55 mg/kg | 1.1 nM | 0.55 mg/kg | > 30 mg/kg | 3 mg/kg | > 30 mg/kg |
| CC(C#CCn1ccnc1)N1CCN(C)C1=O (centres undefined) | – | 4009 nM | 33 | 21 mg/kg | 120 nM | 21 mg/kg | 97 mg/kg | > 100 mg/kg | > 100 mg/kg |
| COC(=O)NCC#CCn1cncc1C | > 100 mg/kg | 6825 nM | 36 | 66 mg/kg | 191 nM | 80 mg/kg | > 100 mg/kg | > 100 mg/kg | > 100 mg/kg |
| COC(=O)N(C)CC#CCN1CCCC1 | 5.5 mg/kg | 550 nM | 211 | > 10 mg/kg | 2.6 nM | > 10 mg/kg | 1.4 mg/kg | > 10 mg/kg | 3 mg/kg |
| O=C1NCCN1CC#CCn1ccnc1 | 17.3 mg/kg | > 10000 nM | – | > 100 mg/kg | 62 nM | > 100 mg/kg | – | > 100 mg/kg | 30 mg/kg |
| Cc1cncn1CC#CCN1C(=O)CCC1C (centres undefined) | > 100 mg/kg | 11.6 nM | 6.9 | 0.8 mg/kg | 1.68 nM | 1.4 mg/kg | > 100 mg/kg | 14.2 mg/kg | > 100 mg/kg |
| CC1CCC(=O)N1CC#CCN(C)C (centres undefined) | 3 mg/kg | 690 nM | 97 | > 100 mg/kg | 7.1 nM | > 100 mg/kg | 1.7 mg/kg | > 100 mg/kg | 3.7 mg/kg |
| O=C1CCCN1CC#CCn1cccn1 | > 100 mg/kg | > 10000 nM | – | > 100 mg/kg | > 10000 nM | > 100 mg/kg | > 100 mg/kg | > 100 mg/kg | > 100 mg/kg |
| Cc1cncn1CC#CCn1ccn(C)c1=O | – | 614 nM | 16 | 8 mg/kg | 39 nM | 22 mg/kg | 100 mg/kg | > 100 mg/kg | > 100 mg/kg |
| COC(=O)N(C)CC#CCn1cncc1C | – | 1001 nM | 28 | 3 mg/kg | 36 nM | 5.4 mg/kg | 4.5 mg/kg | > 100 mg/kg | > 100 mg/kg |
| CN(C)CC#CCN(C)C(=O)N(C)C | 8 mg/kg | > 10000 nM | – | > 100 mg/kg | 16 nM | > 100 mg/kg | 2 mg/kg | > 100 mg/kg | 6.6 mg/kg |
| O=C1OCCN1CC#CCn1ccnc1 | 2 mg/kg | 929 nM | 164 | > 100 mg/kg | 5.7 nM | > 100 mg/kg | 3 mg/kg | > 100 mg/kg | 3 mg/kg |
| COC(=O)N(C)C(C)C#CCn1cncc1C (centres undefined) | > 100 mg/kg | 97 nM | 10 | 3.7 mg/kg | 9.5 nM | 6.6 mg/kg | 97 mg/kg | > 100 mg/kg | > 100 mg/kg |
| Cc1cncn1CC#CCN1CCN(C)C1=O | 14 mg/kg | 381 nM | 44 | 14 mg/kg | 8.6 nM | > 100 mg/kg | 2.5 mg/kg | > 100 mg/kg | – |
| Cc1cncn1CC#CCN(C)C(=O)N(C)C | – | > 10000 nM | – | 9.7 mg/kg | 82 nM | 11.8 mg/kg | 45.2 mg/kg | > 100 mg/kg | > 100 mg/kg |
| COC(=O)N(C)C(C)C#CCN(C)C (centres undefined) | 17.3 mg/kg | > 10000 nM | – | > 100 mg/kg | 16 nM | > 100 mg/kg | 11.8 mg/kg | > 100 mg/kg | 17.3 mg/kg |
| O=C1CCCN1CC#CCn1cncn1 | > 100 mg/kg | > 10000 nM | – | > 100 mg/kg | > 10000 nM | > 100 mg/kg | > 100 mg/kg | > 100 mg/kg | > 100 mg/kg |
| CC(=O)N(C)CC#CCN(C)C | 1.73 mg/kg | > 10000 nM | – | > 10 mg/kg | 4.2 nM | > 10 mg/kg | 0.97 mg/kg | > 10 mg/kg | 1.73 mg/kg |
| CC(=O)N(C)CC#CCN1CCCC1 | 0.55 mg/kg | 260 nM | 283 | > 10 mg/kg | 0.92 nM | > 10 mg/kg | 0.3 mg/kg | > 10 mg/kg | 0.55 mg/kg |

| Compound | ED50 (Mus musculus [1]) | Ki [2] | Ki ratio [3] | ED50 (Mus musculus [4]) | Ki [5] | ED50 (Mus musculus [6]) | ED50 (Mus musculus [7]) | ED50 (Mus musculus [8]) | ED50 (Mus musculus [9]) |
| --- | --- | --- | --- | --- | --- | --- | --- | --- | --- |
| CCOC(=O)N(C)CC#CCN1CCCC1 | > 100 mg/kg | 4219 nM | 65 | > 100 mg/kg | 65 nM | > 100 mg/kg | 66 mg/kg | > 100 mg/kg | > 100 mg/kg |
| CCOC(=O)N(C)C(C)C#CCn1cncc1C (centres undefined) | > 100 mg/kg | 568 nM | 3.6 | 9.7 mg/kg | 156 nM | 17.3 mg/kg | > 100 mg/kg | 30 mg/kg | > 100 mg/kg |
| CCOC(=O)N(C)C(C)C#CCN1CCCC1 (centres undefined) | > 100 mg/kg | 110 nM | 5 | 97 mg/kg | 22 nM | > 100 mg/kg | > 100 mg/kg | > 100 mg/kg | > 100 mg/kg |
| CC(=O)NCC#CCn1cncc1C | > 100 mg/kg | > 10000 nM | – | 66 mg/kg | 213 nM | 66 mg/kg | – | > 100 mg/kg | 66 mg/kg |
| Cc1c[n+](C)cn1CC#CCN1CCCC1=O.[I-] | > 100 mg/kg | 303 nM | 5.7 | 9.7 mg/kg | 53 nM | 25 mg/kg | 30 mg/kg | > 100 mg/kg | > 100 mg/kg |
| Cc1cn(CC#CCN2CCCC2=O)cn1 | > 100 mg/kg | 377 nM | 37 | 14.2 mg/kg | 10.3 nM | 37 mg/kg | – | > 100 mg/kg | > 100 mg/kg |
| CC(=O)N(C)CC#CCn1cncc1C | 45 mg/kg | 172 nM | 48 | 6.6 mg/kg | 3.61 nM | > 100 mg/kg | 5.4 mg/kg | > 100 mg/kg | – |
| COC(=O)N(C)CC#CCN(C)C | 14.3 mg/kg | > 10000 nM | – | > 30 mg/kg | 19 nM | > 30 mg/kg | 17.3 mg/kg | > 30 mg/kg | 9.7 mg/kg |
| CC(=O)NCC#CCn1ccnc1 | > 100 mg/kg | > 10000 nM | – | > 100 mg/kg | 187 nM | > 100 mg/kg | – | > 100 mg/kg | > 100 mg/kg |
| CN1CCN(CC#CCn2ccnc2)C1=O | 1.4 mg/kg | 1868 nM | 890 | > 100 mg/kg | 2.1 nM | > 100 mg/kg | 0.97 mg/kg | – | 1.4 mg/kg |
| CC(=O)N(C)C(C)C#CCn1ccnc1 (centres undefined) | 3 mg/kg | 1500 nM | 125 | > 100 mg/kg | 12 nM | > 100 mg/kg | 2 mg/kg | – | 3 mg/kg |
| Cc1cncn1CC#CCN1CCNC1=O | > 100 mg/kg | > 10000 nM | – | 21 mg/kg | 138 nM | 66 mg/kg | – | > 100 mg/kg | > 100 mg/kg |
| CCOC(=O)N(C)CC#CCn1ccnc1 | > 100 mg/kg | > 10000 nM | – | 97 mg/kg | 206 nM | 97 mg/kg | > 100 mg/kg | > 100 mg/kg | > 100 mg/kg |
| CCc1nccn1CC#CCN1CCCC1=O | > 100 mg/kg | 56.9 nM | 2 | 0.54 mg/kg | 29.1 nM | 2.5 mg/kg | > 100 mg/kg | – | > 100 mg/kg |
| O=C1NCCN1CC#CCN1CCCC1 | > 3 mg/kg | 800 nM | 62 | > 3 mg/kg | 13 nM | > 3 mg/kg | – | > 3 mg/kg | > 3 mg/kg |
| Cc1nccn1CC#CCN1CCCC1=O | 0.37 mg/kg | 3.8 nM | 13 | 0.45 mg/kg | 0.3 nM | > 100 mg/kg | 0.25 mg/kg | > 100 mg/kg | – |
| CCOC(=O)N(C)C(C)C#CCn1ccnc1 (centres undefined) | > 100 mg/kg | > 10000 nM | – | 54 mg/kg | 273 nM | 66 mg/kg | > 100 mg/kg | > 100 mg/kg | > 100 mg/kg |
| O=C1CCCN1CC#CCn1cnc2ccccc21 | > 100 mg/kg | > 10000 nM | – | 80 mg/kg | > 10000 nM | > 100 mg/kg | > 100 mg/kg | > 100 mg/kg | > 100 mg/kg |
| CN(C)C(=O)N(C)CC#CCn1ccnc1 | 25.4 mg/kg | > 10000 nM | – | 11.8 mg/kg | 14.6 nM | > 100 mg/kg | 11.8 mg/kg | > 100 mg/kg | – |

Source: ChEMBL document CHEMBL1125599, “Cholinergic activity of acetylenic imidazoles and related compounds” (J Med Chem, 1991)
